Target: FGFR2 (Homo sapiens, UniProt P21802)
Experiment: FGFR wild type enzyme assay (HTRF KinEASE-TK), FGFR2
Conditions: Enz FGFR2 (nM), FGFR2 wild type enzyme assay

FGFR2, sequence (P21802 399-821 limits assumed): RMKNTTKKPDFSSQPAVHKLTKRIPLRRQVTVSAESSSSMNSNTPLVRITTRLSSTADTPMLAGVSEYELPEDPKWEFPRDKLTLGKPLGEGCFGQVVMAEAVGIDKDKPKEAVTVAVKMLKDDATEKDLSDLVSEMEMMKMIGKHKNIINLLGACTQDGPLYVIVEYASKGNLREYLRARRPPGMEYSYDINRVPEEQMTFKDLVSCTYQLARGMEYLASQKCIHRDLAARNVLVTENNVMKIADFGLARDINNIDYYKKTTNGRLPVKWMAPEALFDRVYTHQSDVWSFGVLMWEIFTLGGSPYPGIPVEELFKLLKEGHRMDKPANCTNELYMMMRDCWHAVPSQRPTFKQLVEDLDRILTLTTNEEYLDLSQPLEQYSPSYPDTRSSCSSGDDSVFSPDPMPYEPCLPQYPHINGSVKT

IC50 [nM] | SMILES
1 | CC(=O)N[C@H]1CC[C@@H](n2ncc(-c3cc(Sc4nc(N)ccc4F)c4c(C#N)cnn4c3)c2C)CC1 [Example 383, N-((1s,4s)-4-(4-(4-((6-amino-3-fluoropyridin-2-yl)thio)-3-cyanopyrazolo[1,5-a]pyridin-6-yl)-5-methyl-1H-pyrazol-1-yl)cyclohexyl)acetamide]
1 | CC(=O)N[C@H]1CC[C@@H](n2ncc(-c3cc(Sc4nc(F)ccc4F)c4c(C#N)cnn4c3)c2C)CC1 [Example 384, N-((1s,4s)-4-(4-(3-cyano-4-((3,6-difluoropyridin-2-y)thio)pyrazolo[1,5-a]pyridin-6-yl)-5-methyl-1H-pyrazol-1-yl)cyclohexyl)acetamide]
1.5 | Cc1c(-c2cc(Sc3cccc(Cl)c3C#N)c3c(C#N)cnn3c2)cnn1C1CCN(C)CC1 [Example 385, 4-((3-chloro-2-cyanophenyl)thio)-6-(5-methyl-1-(1-methylpiperidin-4-yl)-1H-pyrazol-4-yl)pyrazolo[1,5-a]pyridine-3-carbonitrile]
5 | COc1cc(Sc2cc(-c3cnn(C4CCN(C)CC4)c3C)cn3ncc(C#N)c23)c(C#N)cc1F [Example 386, 4-((2-cyano-4-fluoro-5-methoxyphenyl)thio)-6-(5-methyl-1-(1-methylpiperidin-4-yl)-1H-pyrazol-4-yl)pyrazolo[1,5-a]pyridine-3-carbonitrile]
1 | Cc1c(-c2cc(Sc3ccc(F)cc3C#N)c3c(C#N)cnn3c2)cnn1[C@H]1CCN(C)C(C)(C)C1 [Example 387, (S)-4-((2-cyano-4-fluorophenyl)thio)-6-(5-methyl-1-(1,2,2-trimethylpiperidin-4-yl)-1H-pyrazol-4-yl)pyrazolo[1,5-a]pyridine-3-carbonitrile]
0.5 | Cc1c(-c2cc(Sc3ccc(F)cc3C#N)c3c(C#N)cnn3c2)cnn1[C@@H]1CCN(C)C(C)(C)C1 [Example 388, (R)-4-((2-cyano-4-fluorophenyl)thio)-6-(5-methyl-1-(1,2,2-trimethylpiperidin-4-yl)-1H-pyrazol-4-yl)pyrazolo[1,5-a]pyridine-3-carbonitrile]
5 | Cc1c(-c2cc(Sc3ncc(F)cc3F)c3c(C#N)cnn3c2)cnn1[C@H]1CCN(C)C(C)(C)C1 [Example 389, (S)-4-((3,5-difluoropyridin-2-yl)thio)-6-(5-methyl-1-(1,2,2-trimethylpiperidin-4-yl)-1H-pyrazol-4-yl)pyrazolo[1,5-a]pyridine-3-carbonitrile]
42 | Cc1c(-c2cc(Sc3ncc(F)cc3F)c3c(C#N)cnn3c2)cnn1[C@@H]1CCN(C)C(C)(C)C1 [Example 390, (R)-4-((3,5-difluoropyridin-2-yl)thio)-6-(5-methyl-1-(1,2,2-trimethylpiperidin-4-yl)-1H-pyrazol-4-yl)pyrazolo[1,5-a]pyridine-3-carbonitrile]
1 | Cc1c(-c2cc(Sc3ccc(F)cc3C#N)c3c(C#N)cnn3c2)cnn1[C@H]1CC[C@H](N(C)CCO)CC1 [Example 391, 4-((2-cyano-4-fluorophenyl)thio)-6-(1-((1r,4r)-4-((2-hydroxyethyl)(methyl)ami-no)cyclohexyl)-5-methyl-1H-pyrazol-4-yl)pyrazolo[1,5-a]pyridine-3-carbonitrile]
12 | CN(C)[C@H]1CC[C@@H](n2cc(-c3cc(Sc4ncccc4F)c4c(C#N)cnn4c3)nn2)CC1 [Example 392, 6-[1-[4-(dimethylamino)cyclohexyl]triazol-4-yl]-4-[(3-fluoro-2-pyridyl)sulfanyl] pyrazolo [1,5-a]pyridine-3-carbonitrile]
6 | CC(=O)N[C@H]1CC[C@@H](n2cc(-c3cc(Sc4ncccc4F)c4c(C#N)cnn4c3)c(C)n2)CC1 [Example 393, N-((1s,4s)-4-(4-(3-cyano-4-((3-fluoropyridin-2-yl)thio)pyrazolo[1,5-a]pyridin-6-yl)-3-methyl-1H-pyrazol-1-yl)cyclohexyl)acetamide]
3 | CC(=O)N[C@H]1CC[C@@H](n2cc(-c3cc(Sc4ccccc4C#N)c4c(C#N)cnn4c3)c(C)n2)CC1 [Example 394, N-((1s,4s)-4-(4-(3-cyano-4-((2-cyanophenyl)thio)pyrazolo [1,5-a]pyridin-6-yl)-3-methyl-1H-pyrazol-1-yl)cyclohexyl)acetamide]
3 | CN1CCC(n2ncc(-c3cc(Sc4ncccc4F)c4c(C#N)cnn4c3)c2Cl)CC1 [Example 395, 6-(5-chloro-1-(1-methylpiperidin-4-yl)-1H-pyrazol-4-yl)-4-((3-fluoropyridin-2-yl)thio)pyrazolo[1,5-a]pyridine-3-carbonitrile]
1 | CN1CCC(n2ncc(-c3cc(Sc4ccccc4C#N)c4c(C#N)cnn4c3)c2Cl)CC1 [Example 396, 6-(5-chloro-1-(1-methylpiperidin-4-yl)-1H-pyrazol-4-yl)-4-((2-cyanophenyl)thio)pyrazolo [1,5-a]pyridine-3-carbonitrile]
5 | CC(=O)N1CCC(n2ncc(-c3cc(Sc4ncccc4F)c4c(C#N)cnn4c3)c2F)CC1 [Example 397, 6-(1-(1-acetylpiperidin-4-yl)-5-fluoro-1H-pyrazol-4-yl)-4-((3-fluoropyridin-2-yl)thio)pyrazolo[1,5-a]pyridine-3-carbonitrile]
2 | CC(=O)N1CCC(n2ncc(-c3cc(Sc4ccccc4C#N)c4c(C#N)cnn4c3)c2F)CC1 [Example 398, 6-(1-(1-acetylpiperidin-4-yl)-5-fluoro-1H-pyrazol-4-yl)-4-((2-cyanophenyl)thio)pyrazolo [1,5-a]pyridine-3-carbonitrile]
2 | CC(=O)N1CCC(n2ncc(-c3cc(Sc4nc(C)c(F)cc4F)c4c(C#N)cnn4c3)c2C)CC1 [Example 399, 6-(1-(1-acetylpiperidin-4-yl)-5-methyl-1H-pyrazol-4-yl)-4-((3,5-difluoro-6-methylpyridin-2-yl)thio)pyrazolo[1,5-a]pyridine-3-carbonitrile]
3 | CC(=O)N1CCC(n2cc(-c3cc(Sc4ccccc4C#N)c4c(C#N)cnn4c3)c(C)n2)CC1 [Example 400, 6-(1-(1-acetylpiperidin-4-yl)-3-methyl-1H-pyrazol-4-yl)-4-((2-cyanophenyl)thio)pyrazolo [1,5-a]pyridine-3-carbonitrile]
7 | CC(=O)N1CCC(n2cc(-c3cc(Sc4ncccc4F)c4c(C#N)cnn4c3)c(C)n2)CC1 [Example 401, 6-(1-(1-acetylpiperidin-4-yl)-3-methyl-1H-pyrazol-4-yl)-4-((3-fluoropyridin-2-yl)thio)pyrazolo[1,5-a]pyridine-3-carbonitrile]
2 | Cc1c(-c2cc(Sc3ccc(F)cc3C#N)c3c(C#N)cnn3c2)cnn1[C@H]1CCCN(S(C)(=O)=O)C1 [Example 402, (S)-4-((2-cyano-4-fluorophenyl)thio)-6-(5-methyl-1-(1-(methylsulfonyl)piperidin-3-yl)-1H-pyrazol-4-yl)pyrazolo[1,5-a]pyridine-3-carbonitrile]
2 | Cc1c(-c2cc(Sc3ccc(F)cc3C#N)c3c(C#N)cnn3c2)cnn1C1CCN(S(C)(=O)=O)CC1 [Example 403, 4-((2-cyano-4-fluorophenyl)thio)-6-(5-methyl-1-(1-(methylsulfonyl)piperidin-4-yl)-1H-pyrazol-4-yl)pyrazolo[1,5-a]pyridine-3-carbonitrile]
15 | N#Cc1cnn2cc(-c3cn([C@H]4CCCNC4)nn3)cc(Sc3ncccc3F)c12 [Example 404, (S)-4-((3-fluoropyridin-2-yl)thio)-6-(1-(piperidin-3-yl)-1H-1,2,3-triazol-4-yl)pyrazolo[1,5-a]pyridine-3-carbonitrile]
2 | N#Cc1cc(F)ccc1Sc1cc(-c2ccc(N3CCOCC3)nc2)cn2ncc(C#N)c12 [Example 405, 4-((2-cyano-4-fluorophenyl)thio)-6-(6-morpholinopyridin-3-yl)pyrazolo[1,5-a]pyridine-3-carbonitrile]
1 | Cc1c(-c2cc(Sc3ccccc3C#N)c3c(C#N)cnn3c2)cnn1C1CCN(C(=O)N(C)C)CC1 [Example 406, 4-(4-(3-cyano-4-((2-cyanophenyl)thio)pyrazolo [1,5-a]pyridin-6-yl)-5-methyl-1H-pyrazol-1-yl)-N,N-dimethylpiperidine-1-carboxamide]
0.2 | CN(c1ccc(-c2cc(Sc3ccccc3C#N)c3c(C#N)cnn3c2)cn1)C1CCCNC1 (centres unmarked) [Example 407, 4-(2-cyanophenyl)sulfanyl-6-[6-[methyl(3-piperidyl)amino]-3-pyridyl]pyrazolo[1,5-a]pyridine-3-carbonitrile]
2 | CC(=O)N1CCC(n2ncc(-c3cc(Sc4nc(C)c(Cl)cc4F)c4c(C#N)cnn4c3)c2C)CC1 [Example 408, 6-(1-(1-acetylpiperidin-4-yl)-5-methyl-1H-pyrazol-4-yl)-4-((5-chloro-3-fluoro-6-methylpyridin-2-yl)thio)pyrazolo[1,5-a]pyridine-3-carbonitrile]
5 | CC(=O)N1[C@@H]2CC[C@H]1C[C@H](n1cc(-c3cc(Sc4ccccc4C#N)c4c(C#N)cnn4c3)c(C)n1)C2 [Example 409, 6-(1-((1R,3s,5S)-8-acetyl-8-azabicyclo[3.2.1]octan-3-yl)-3-methyl-1H-pyrazol-4-yl)-4-((2-cyanophenyl)thio)pyrazolo [1,5-a]pyridine-3-carbonitrile]
26 | CC(=O)N1[C@@H]2CC[C@H]1C[C@H](n1cc(-c3cc(Sc4ccc(F)cc4C#N)c4c(C#N)cnn4c3)c(C)n1)C2 [Example 410, 6-(1-((1R,3s,5S)-8-acetyl-8-azabicyclo[3.2.1]octan-3-yl)-3-methyl-1H-pyrazol-4-yl)-4-((2-cyano-4-fluorophenyl)thio)pyrazolo [1,5-a]pyridine-3-carbonitrile]
2 | CC(=O)N1CC[C@H](n2ncc(-c3cc(Sc4ccc(F)cc4C#N)c4c(C#N)cnn4c3)c2C)C[C@@H]1C [Example 411, 6-(1-((2S,4S)-1-acetyl-2-methylpiperidin-4-yl)-5-methyl-1H-pyrazol-4-yl)-4-((2-cyano-4-fluorophenyl)thio)pyrazolo [1,5-a]pyridine-3-carbonitrile]
